Reference: PMC9866191, “Novel 9-Benzylaminoacridine Derivatives as Dual Inhibitors of Phosphodiesterase 5 and Topoisomerase II for the Treatment of Colon Cancer” (Molecules, 2023)

Experiments:
Assay in all cases: NCI-60 one-dose screen
Format in all cases: cell-based
[1] = system: SF-539; conditions: Homo sapiens; SF-539, CNS Cancer panel; single dose 10^−5 M; read-out: Growth inhibition %
[2] = system: SK-OV-3; conditions: Homo sapiens; SK-OV-3, Ovarian Cancer panel; single dose 10^−5 M; read-out: Growth inhibition %
[3] = system: OVCAR-5; conditions: Homo sapiens; OVCAR-5, Ovarian Cancer panel; single dose 10^−5 M; read-out: Growth inhibition %
[4] = system: T-47D; conditions: Homo sapiens, T47D, Breast Cancer panel, single dose 10^−5 M, read-out: Growth inhibition %
[5] = system: HCC-2998; conditions: Homo sapiens; HCC-2998, Colon Cancer panel; single dose 10^−5 M; read-out: Growth inhibition %
[6] = system: U251; conditions: Homo sapiens, U-251; U251, CNS Cancer panel; single dose 10^−5 M; read-out: Growth inhibition %
[7] = system: UACC-257; conditions: Homo sapiens; UACC-257, Melanoma panel; single dose 10^−5 M; read-out: Growth inhibition %
[8] = system: HT29; conditions: Homo sapiens, HT-29; HT29, Colon Cancer panel; single dose 10^−5 M; read-out: Growth inhibition %
[9] = system: HCT-15; conditions: Homo sapiens; HCT-15, Colon Cancer panel; single dose 10^−5 M; read-out: Growth inhibition %
[10] = system: UACC-62; conditions: Homo sapiens; UACC-62, Melanoma panel; single dose 10^−5 M; read-out: Growth inhibition %
[11] = system: TK-10; conditions: Homo sapiens; TK-10, Renal Cancer panel; single dose 10^−5 M; read-out: Growth inhibition %
[12] = system: RXF 393; conditions: Homo sapiens; RXF 393, Renal Cancer panel; single dose 10^−5 M; read-out: Growth inhibition %
[13] = system: K-562; conditions: Homo sapiens, K562; K-562, Leukemia panel; single dose 10^−5 M; read-out: Growth inhibition %
[14] = system: DU-145; conditions: Homo sapiens; DU-145, Prostate Cancer panel; single dose 10^−5 M; read-out: Growth inhibition %
[15] = system: A498; conditions: Homo sapiens; A498, Renal Cancer panel; single dose 10^−5 M; read-out: Growth inhibition %
[16] = system: NCI-H226; conditions: Homo sapiens; NCI-H226, Non-small cell lung panel; single dose 10^−5 M; read-out: Growth inhibition %
[17] = system: M14; conditions: Homo sapiens; M14, Melanoma panel; single dose 10^−5 M; read-out: Growth inhibition %
[18] = system: OVCAR-8; conditions: Homo sapiens; OVCAR-8, Ovarian Cancer panel; single dose 10^−5 M; read-out: Growth inhibition %
[19] = system: SK-MEL-5; conditions: Homo sapiens; SK-MEL-5, Melanoma panel; single dose 10^−5 M; read-out: Growth inhibition %
[20] = system: RPMI-8226; conditions: Homo sapiens; RPMI-8226, Leukemia panel; single dose 10^−5 M; read-out: Growth inhibition %
[21] = system: SNB-19; conditions: Homo sapiens; SNB-19, CNS Cancer panel; single dose 10^−5 M; read-out: Growth inhibition %
[22] = system: SW-620; conditions: Homo sapiens; SW-620, Colon Cancer panel; single dose 10^−5 M; read-out: Growth inhibition %
[23] = system: BT-549; conditions: Homo sapiens; BT-549, Breast Cancer panel; single dose 10^−5 M; read-out: Growth inhibition %
[24] = system: MALME-3M; conditions: Homo sapiens, Melanoma panel, single dose 10^−5 M, read-out: Growth inhibition %
[25] = system: SF-295; conditions: Homo sapiens; SF-295, CNS Cancer panel; single dose 10^−5 M; read-out: Growth inhibition %
[26] = system: COLO 205; conditions: Homo sapiens; COLO 205, Colon Cancer panel; single dose 10^−5 M; read-out: Growth inhibition %
[27] = system: KM12; conditions: Homo sapiens; KM12, Colon Cancer panel; single dose 10^−5 M; read-out: Growth inhibition %
[28] = system: SR; conditions: Homo sapiens, Leukemia panel, single dose 10^−5 M, read-out: Growth inhibition %
[29] = system: EKVX; conditions: Homo sapiens, Non-small cell lung panel, single dose 10^−5 M, read-out: Growth inhibition %
[30] = system: PC-3; conditions: Homo sapiens; PC-3, Prostate Cancer panel; single dose 10^−5 M; read-out: Growth inhibition %
[31] = system: SK-MEL-2; conditions: Homo sapiens; SK-MEL-2, Melanoma panel; single dose 10^−5 M; read-out: Growth inhibition %
[32] = system: CCRF-CEM; conditions: Homo sapiens, Leukemia panel, single dose 10^−5 M, read-out: Growth inhibition %

| Structure (SMILES) | inhibition at 10 µM [1] | inhibition at 10 µM [2] | inhibition at 10 µM [3] | inhibition at 10 µM [4] | inhibition at 10 µM [5] | inhibition at 10 µM [6] | inhibition at 10 µM [7] | inhibition at 10 µM [8] | inhibition at 10 µM [9] | inhibition at 10 µM [10] | inhibition at 10 µM [11] | inhibition at 10 µM [12] | inhibition at 10 µM [13] | inhibition at 10 µM [14] | inhibition at 10 µM [15] | inhibition at 10 µM [16] | inhibition at 10 µM [17] | inhibition at 10 µM [18] | inhibition at 10 µM [19] | inhibition at 10 µM [20] | further results |
| --- | --- | --- | --- | --- | --- | --- | --- | --- | --- | --- | --- | --- | --- | --- | --- | --- | --- | --- | --- | --- | --- |
| COc1ccc(CNc2c3ccccc3nc3ccc(OC)cc23)cc1 [Compound 27, (2-Methoxyacridin-9-yl)-(4-methoxybenzyl)-amine] | 91.5% | 52.9% | 69.3% | 65.8% | 158% | 83.9% | 93.4% | 103% | 94.7% | 57.4% | 66.4% | 103% | 99.7% | 80% | 106% | 66.2% | 80.5% | 74.6% | 88.9% | 148% | inhibition at 10 µM [21]: 77.3%; inhibition at 10 µM [22]: 84.2%; inhibition at 10 µM [23]: 57%; inhibition at 10 µM [24]: 92.9%; inhibition at 10 µM [25]: 80.6%; inhibition at 10 µM [26]: 151%; inhibition at 10 µM [27]: 72.4%; inhibition at 10 µM [28]: 116%; inhibition at 10 µM [29]: 75.8%; inhibition at 10 µM [30]: 94.5%; inhibition at 10 µM [31]: 59.1%; inhibition at 10 µM [32]: 80.6% |
| COc1ccc2nc3ccccc3c(NCc3ccc(F)cc3)c2c1 [Compound 28, (4-Fluorobenzyl)-(2-methoxyacridin-9-yl)-amine] | 96.2% | 62.1% | 82% | 63.5% | 178% | 77.9% | 111% | 99.8% | 95.9% | 60.9% | 62.2% | 119% | 98% | 83.5% | 108% | 70% | 84.7% | 80.5% | 107% | 143% | inhibition at 10 µM [21]: 82.3%; inhibition at 10 µM [22]: 85.3%; inhibition at 10 µM [23]: 65%; inhibition at 10 µM [24]: 105%; inhibition at 10 µM [25]: 85.6%; inhibition at 10 µM [26]: 154%; inhibition at 10 µM [27]: 71.3%; inhibition at 10 µM [28]: 101%; inhibition at 10 µM [29]: 77.6%; inhibition at 10 µM [30]: 82.9%; inhibition at 10 µM [31]: 65%; inhibition at 10 µM [32]: 81.7% |
| COc1ccc2nc3ccccc3c(NCc3ccc(Cl)cc3)c2c1 [Compound 29, (4-Chlorobenzyl)-(2-methoxyacridin-9-yl)-amine] | 106% | 36% | 73.5% | 50.7% | 188% | 97.5% | 152% | 102% | 95% | 35.2% | 47.1% | 124% | 130% | 78.5% | 91.4% | 51.2% | 186% | 70.3% | 88.3% | 145% | inhibition at 10 µM [21]: 73.6%; inhibition at 10 µM [22]: 87.2%; inhibition at 10 µM [23]: 49.8%; inhibition at 10 µM [24]: 182%; inhibition at 10 µM [25]: 74.2%; inhibition at 10 µM [26]: 162%; inhibition at 10 µM [27]: 59.9%; inhibition at 10 µM [28]: 130%; inhibition at 10 µM [29]: 66.2%; inhibition at 10 µM [30]: 80.5%; inhibition at 10 µM [31]: 28.7%; inhibition at 10 µM [32]: 91.6% |
| Cc1ccc2nc3ccccc3c(NCc3ccccc3)c2c1 [Compound 30, Benzyl-(2-methylacridin-9-yl)-amine] | 76.8% | 35.7% | 59.6% | 36.4% | 121% | 63% | 43.4% | 88.4% | 82% | 43.6% | 24.7% | 98.7% | 89% | 64.2% | 88.6% | 50.2% | 54.4% | 66.5% | 41.2% | 93.2% | inhibition at 10 µM [21]: 68.2%; inhibition at 10 µM [22]: 75.7%; inhibition at 10 µM [23]: 31%; inhibition at 10 µM [24]: 44.8%; inhibition at 10 µM [25]: 72%; inhibition at 10 µM [26]: 91.9%; inhibition at 10 µM [27]: 43.7%; inhibition at 10 µM [28]: 95.9%; inhibition at 10 µM [29]: 50.4%; inhibition at 10 µM [30]: 70.3%; inhibition at 10 µM [31]: 0.04%; inhibition at 10 µM [32]: 65.1% |
| Cc1ccc2nc3ccccc3c(NCc3ccc(Cl)cc3)c2c1 [Compound 31, (4-Chlorobenzyl)-(2-methyl-acridin-9-yl)-amine] | 59.8% | 24.8% | 49.3% | 42.1% | 179% | 74.9% | 103% | 94.7% | 85.5% | 26% | 17.6% | 71% | 97.4% | 48.6% | 87% | 27.7% | 117% | 47.6% | 46% | 128% | inhibition at 10 µM [21]: 49.7%; inhibition at 10 µM [22]: 68%; inhibition at 10 µM [23]: 24.4%; inhibition at 10 µM [24]: 114%; inhibition at 10 µM [25]: 56.3%; inhibition at 10 µM [26]: 153%; inhibition at 10 µM [27]: 22.9%; inhibition at 10 µM [28]: 109%; inhibition at 10 µM [29]: 44.6%; inhibition at 10 µM [30]: 60.9%; inhibition at 10 µM [31]: -1.95%; inhibition at 10 µM [32]: 81.8% |
